This note sets out measurements from ChEMBL document CHEMBL1145387, “Carbonic anhydrase activators: activation of the human isoforms VII (cytosolic) and XIV (transmembrane) with amino acids and amines” (Bioorg Med Chem Lett, 2007).

Experiment [1] has as its target Carbonic anhydrase 7 (Homo sapiens) (UniProt P43166). The experiment is described as follows: Activation of human recombinant CA7 by CO2 hydrase assay.
The target in experiment [2] is Carbonic anhydrase 14 (Homo sapiens) (UniProt Q9ULX7). Briefly: Activation of human recombinant CA14 by CO2 hydrase assay.
Experiment [3] has as its target Carbonic anhydrase 1 (Homo sapiens) (UniProt P00915). Briefly: Activation of human recombinant CA1 by CO2 hydrase assay.
The target of experiment [4] is Carbonic anhydrase 2 (Homo sapiens) (UniProt P00918). Briefly: Activation of human recombinant CA2 by CO2 hydrase assay.

The structures appear in SMILES notation.

Sequence of Carbonic anhydrase 7 (Homo sapiens) (P43166 whole entry): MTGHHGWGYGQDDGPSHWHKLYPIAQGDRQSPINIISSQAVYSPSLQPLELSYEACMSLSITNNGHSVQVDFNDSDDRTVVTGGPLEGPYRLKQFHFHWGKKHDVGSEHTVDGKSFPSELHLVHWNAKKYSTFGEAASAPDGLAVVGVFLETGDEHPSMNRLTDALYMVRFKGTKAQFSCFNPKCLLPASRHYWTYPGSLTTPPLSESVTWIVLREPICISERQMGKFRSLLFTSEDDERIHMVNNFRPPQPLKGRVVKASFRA
Sequence of Carbonic anhydrase 1 (Homo sapiens) (P00915 2-261 limits assumed): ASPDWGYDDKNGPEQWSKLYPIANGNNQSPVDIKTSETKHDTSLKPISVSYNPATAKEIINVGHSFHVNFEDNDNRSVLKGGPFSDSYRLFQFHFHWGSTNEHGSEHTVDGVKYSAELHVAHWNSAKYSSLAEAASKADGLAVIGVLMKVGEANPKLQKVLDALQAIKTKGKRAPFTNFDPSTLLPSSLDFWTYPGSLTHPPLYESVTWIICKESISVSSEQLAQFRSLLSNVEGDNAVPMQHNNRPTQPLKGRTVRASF
Sequence of Carbonic anhydrase 14 (Homo sapiens) (Q9ULX7 whole entry): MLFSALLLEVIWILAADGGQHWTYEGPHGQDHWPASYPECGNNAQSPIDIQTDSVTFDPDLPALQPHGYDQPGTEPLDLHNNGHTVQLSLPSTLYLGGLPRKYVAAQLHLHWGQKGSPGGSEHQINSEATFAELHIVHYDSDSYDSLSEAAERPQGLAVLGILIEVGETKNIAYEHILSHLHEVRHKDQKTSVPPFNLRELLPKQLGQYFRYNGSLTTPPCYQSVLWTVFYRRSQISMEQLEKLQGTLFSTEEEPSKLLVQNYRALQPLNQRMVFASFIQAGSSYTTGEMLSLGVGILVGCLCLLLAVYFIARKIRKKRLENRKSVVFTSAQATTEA

`N[C@@H](Cc1c[nH]c2ccccc12)C(=O)O`: the KA in experiment [1] stood at 57.5 µM; in experiment [2], 16.5 µM.

As to `NCCc1c[nH]cn1`, the KA in experiment [1] was 37.5 µM; in experiment [2], 0.01 µM.

Turning to `CNC[C@@H](O)c1ccc(O)c(O)c1`, the KA in experiment [3] is 0.09 µM; in experiment [4] it was 96 µM; in experiment [1] it was 60 µM; in experiment [2], 36.1 µM.

On to `NCCN1CCNCC1`, for which the KA was determined as 32.5 µM in experiment [1] and 18.3 µM in experiment [2].

With `NCCc1ccccn1`, the KA in experiment [1] is 27.8 µM; in experiment [2] it was 6.9 µM.

On to `N[C@H](Cc1c[nH]cn1)C(=O)O`, for which the KA was 0.71 µM in experiment [1] and 2.37 µM in experiment [2].

In the case of `N[C@H](Cc1ccc(O)c(O)c1)C(=O)O`, the KA in experiment [1] amounted to 58.3 µM; in experiment [2], 36.8 µM.

Turning to `NCc1ccccn1`, the values for the KA in experiment [1] and in experiment [2] were 43.7 µM and 21.7 µM, respectively.

Regarding `NCCN1CCOCC1`, the KA was 64.3 µM in experiment [1] and 5.4 µM in experiment [2].

Consider `N[C@H](Cc1c[nH]c2ccccc12)C(=O)O`, for which the figures for the KA in experiment [1] and in experiment [2] were 39.6 µM and 18 µM, respectively.

`Nc1ccc(C[C@H](N)C(=O)O)cc1`: the KA in experiment [3] was found to be 0.24 µM; in experiment [4] it was 0.15 µM; in experiment [1] it was 39.6 µM; in experiment [2], 18 µM.

On to `N[C@@H](Cc1c[nH]cn1)C(=O)O`, for which the KA was 0.92 µM in experiment [1] and 0.9 µM in experiment [2].

`N[C@@H](Cc1ccc(O)cc1)C(=O)O`: the KA in experiment [3] came out at 0.02 µM; in experiment [4], 0.011 µM; in experiment [1] it was 20.3 µM; in experiment [2], 21.8 µM.

For the molecule `N[C@@H](Cc1ccc(O)c(O)c1)C(=O)O`, the KA is 58.3 µM in experiment [1] and 12.1 µM in experiment [2].

With `NCCc1ccc(O)c(O)c1`, the KA in experiment [1] turned out to be 0.89 µM; in experiment [2] it was 14.6 µM.

Regarding `NCCc1c[nH]c2ccc(O)cc12`, the KA in experiment [1] worked out at 0.93 µM; in experiment [2], 6.5 µM.
